In ChEMBL document CHEMBL3430912, “GSK Tres Cantos Anti-Kinetoplastid Screening (TCAKS) Data”:

Experiments:
Trypanosoma cruzi [1] = assay: GSK_TCAKS: pIC50 Trypanosoma cruzi viability assay using beta-GAL activity. This assay was run at single shot at 5uM compound concentration per well. The biological reagents consisted of NIH-3T3 host cells and trypomastigotes parasitic cells; both cell types were set to a 3.3 * 10^5 cells/mL dilution in assay DMEM by means of a CASY cell counter device using a 60um capillary. 6 uL of the mixture were dispensed per well (about 1 * 10^3 host-cells and 1 * 10^3 parasites) with a Multidrop Combi dispenser. […] In all wells, the percentage of DMSO never exceeded 0.5%. Plates incubated for four days at 37C, 5% CO2. The substrate used for the assay fluorescence intensity (FLINT) readout was resorufin-beta-D-galactopiranoside (Sigma-Aldrich) at 5uM per well. It was diluted in PBS supplemented with the soft detergent Igepal (Fluka).; type: functional, organism-based, Mus musculus; conditions: Tulahuen, NIH3T3
Trypanosoma cruzi [2] = assay: (§1) GSK_TCAKS: pIC50 Trypanosoma cruzi Imaging: Infected Cells. […] Cells were then washed once with PBS before infection. T. cruzi trypomastigotes, collected at days 5 to 8 after infection from LLC-MK2 parasite infected cultures, were allowed to swim out for 4h at 37C from a centrifuged pellet (2,500 rpm/10 min/room temperature). Trypomastigotes were then collected and counted in a CASY Cell Counter. Trypomastigotes, in supplemented DMEM, were added to H9c2 cultures in a multiplicity of infection of 1 and incubated for 18 h. Cells were washed once with PBS before incubation of the infected H9c2 monolayer with trypsin (Life-Technologies) to detach cells from the flask. Cells were counted in a CASY Cell Counter using a 150 um capillary and their density set at 5 * 10^4 cells per mL in supplemented assay DMEM. Infected H9c2 were dispensed into 384-well poly-lysine coated assay plates at 50uL per well using a Multidrop Combi dispenser. After seeding them, the plates were incubated at 37C, 5% CO2 for 72h. Cultures were then fixed and stained by addition of 50 uL of a solution containing 8% formaldehyde and 4 uM DRAQ5 DNA dye (BioStatus, UK) per well. […] Five images were collected per well for reliable statistical analysis. Automated image analysis was performed with a script developed on Acapella High Content Imaging and Analysis Software (PerkinElmer). Output: percentage of infected cells per well as a second infection marker.; type: functional, organism-based, Rattus norvegicus; conditions: H9c2, 4 h
Trypanosoma cruzi [3] = assay: GSK_TCAKS: pIC50 Trypanosoma cruzi Imaging: Amastigotes/Cell. […] Cells were then washed once with PBS before infection. T. cruzi trypomastigotes, collected at days 5 to 8 after infection from LLC-MK2 parasite infected cultures, were allowed to swim out for 4h at 37C from a centrifuged pellet (2,500 rpm/10 min/room temperature). Trypomastigotes were then collected and counted in a CASY Cell Counter. Trypomastigotes, in supplemented DMEM, were added to H9c2 cultures in a multiplicity of infection of 1 and incubated for 18 h. Cells were washed once with PBS before incubation of the infected H9c2 monolayer with trypsin (Life-Technologies) to detach cells from the flask. Cells were counted in a CASY Cell Counter using a 150 um capillary and their density set at 5 * 10^4 cells per mL in supplemented assay DMEM. Infected H9c2 were dispensed into 384-well poly-lysine coated assay plates at 50uL per well using a Multidrop Combi dispenser. After seeding them, the plates were incubated at 37C, 5% CO2 for 72h. Cultures were then fixed and stained by addition of 50 uL of a solution containing 8% formaldehyde and 4 uM DRAQ5 DNA dye (BioStatus, UK) per well. […] Five images were collected per well for reliable statistical analysis. Automated image analysis was performed with a script developed on Acapella High Content Imaging and Analysis Software (PerkinElmer). Output: number of amastigotes per cell as infection level measurement.; type: functional, organism-based, Rattus norvegicus; conditions: H9c2, 4 h
Trypanosoma cruzi [4] = assay: as §1, with “H2C9” for “Trypanosoma cruzi”, “H9c2 Host Cardiomyocytes.” for “Infected Cells.”, “Number” for “percentage”, “H9c2 Host Cardiomyocytes nuclei to determine drug-related cytotoxicity.” for “infected cells per well as a second infection marker.”; type: functional, organism-based, Rattus norvegicus; conditions: H9c2, 4 h
Leishmania donovani [5] = assay: GSK_TCAKS: pIC50 Leishmania donovani viability assay using fluorescence intensity. Assay plates (1536-well) were prepared by adding 30nL per well of compound. For single shot assay, the final compound concentration was 5uM. […] Briefly, eGFP LdBOB axenic amastigotes were harvested, fixed and counted in a CASY cell counter (Roche-Applied Science). A final concentration of 1.5 * 10^5 cells per well were prepared in amastigote media containing 500 U/mL penicillin/streptomycin (Invitrogen) and 6uL was dispensed to each experimental well using a Multidrop Combi dispenser (Thermo Scientific). 6uL of assay media was dispensed to control columns used as reference for 100% compound response. Following incubation for 72 h at 37C, 5% CO2, 2 uL of resazurin was added to each well at a final concentration of 0.5 mM in phosphate buffered saline (PBS) with IGEPAL (Sigma-Aldrich), 0.05% (v/v).; type: functional, organism-based
Leishmania donovani [6] = assay: (§2) GSK_TCAKS: pIC50 Leishmania donovani Imaging: Infected Macrophages. Assay plates (384-well) were prepared by adding 250nL of compound to each well. For single shot assay, the final compound concentration was 5 uM. […] Automated image analysis was performed with a script developed on Acapella High Content Imaging and Analysis Software (PerkinElmer). Output: Percent of infected macrophage cells were reported for each well.; type: functional, organism-based, Homo sapiens; conditions: THP-1
Leishmania donovani [7] = assay: as §2, with “Amastigotes/Macrophages.” for “Infected Macrophages.”, “Average number” for “Percent”, “amastigotes per” for “infected”, “cell” for “cells”; type: functional, organism-based, Homo sapiens; conditions: THP-1
Leishmania donovani [8] = assay: as §2, with “THP-1 Host” for “Infected”, “THP-1 cell count” for “Percent of infected macrophage cells”; type: functional, organism-based, Homo sapiens
[9] = test system: Trypanosoma brucei brucei; assay: GSK_TCAKS: pIC50 Trypanosoma brucei viability assay using fluorescence intensity. Assay plates (1536-well) were prepared by dispensing 25nL of compound solution per well using an Echo acoustic dispenser (Labcyte).; type: functional, organism-based; conditions: Lister 427, 2 h
[10] = test system: Trypanosoma brucei brucei; assay: GSK_TCAKS: pIC50 Trypanosoma brucei viability assay using luminiscence. Assay plates (1536-well) were prepared. T. brucei cultures were harvested and counted in a CASY cell counter. A parasite suspension was prepared at a final concentration of 5 * 10^4 cells/mL in complete HMI9 medium and 6uL was dispensed to all wells containing compounds using a Multidrop Combi dispenser. 6uL of HMI9 media with 0.4% DMSO were dispensed to control columns. Plates were incubated for 24 h at 37C, 5% CO2 then tempered for 10 min at room temperature. ATP content was quantified by adding 4 uL of CellTiter-Glo Reagent (Promega) according to the manufacturer's instructions. Luminescence was measured using a ViewLux.; type: functional, organism-based; conditions: Lister 427, CASY
[11] = GSK_TCAKS: pIC50 HepG2 human cell line viability assay using luminiscence. […] Seeding density was checked to ensure that new mono-layers were not more than 50% confluent at the time of harvesting. Cell suspension was added to 500 mL of the same medium at a final density of 1.2 * 10^5 cells/mL. This cell suspension was dispensed (25 uL, 3000 cells per well) into 384-well clear-bottom plates using a Multidrop Combi dispenser. Prior to addition of the cell suspension, the screening compounds (250 nL) were pre-dispensed into the plates with an Echo liquid handler. Plates were incubated for 48 h at 37C, 5% CO2. After incubation, plates equilibrated at room temperature for 30 min before proceeding to develop the luminescent signal. The signal developer, CellTiter-Glo Reagent, was allowed to equilibrate at room temperature for 30 min and added to the plates (25uL per well) using a Multidrop Combi dispenser. Plates were left for 10 min at room temperature for stabilization and then read using a ViewLux.; type: toxicity, cell-based
[12] = target: Sterol 14-alpha demethylase (Trypanosoma cruzi (strain CL Brener), UniProt Q7Z1V1); assay: GSK_TCAKS: pIC50 CYP51 from Trypanosoma cruzi.; type: functional
Chain of Sterol 14-alpha demethylase (Q7Z1V1 whole entry): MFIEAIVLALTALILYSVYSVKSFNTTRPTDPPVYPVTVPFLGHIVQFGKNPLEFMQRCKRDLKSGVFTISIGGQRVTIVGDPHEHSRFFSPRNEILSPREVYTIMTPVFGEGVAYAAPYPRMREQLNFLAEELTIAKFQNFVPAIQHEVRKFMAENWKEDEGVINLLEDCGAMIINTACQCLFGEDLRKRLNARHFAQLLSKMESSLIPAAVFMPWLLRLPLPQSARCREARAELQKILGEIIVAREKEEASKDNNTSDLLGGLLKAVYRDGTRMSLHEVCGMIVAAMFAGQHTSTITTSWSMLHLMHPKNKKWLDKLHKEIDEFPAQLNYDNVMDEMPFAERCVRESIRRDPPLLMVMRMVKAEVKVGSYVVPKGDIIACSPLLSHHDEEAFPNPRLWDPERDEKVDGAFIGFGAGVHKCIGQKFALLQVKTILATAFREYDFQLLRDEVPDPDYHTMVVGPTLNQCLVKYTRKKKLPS

Row | Compound | IC50 (Trypanosoma cruzi [1]) [µM] | IC50 (Trypanosoma cruzi [2]) [µM] | IC50 (Trypanosoma cruzi [3]) [µM] | IC50 (Trypanosoma cruzi [4]) [µM] | IC50 (Leishmania donovani [5]) [µM] | IC50 (Leishmania donovani [6]) [µM] | IC50 (Leishmania donovani [7]) [µM] | IC50 (Leishmania donovani [8]) [µM] | IC50 [9] [µM] | IC50 [10] [µM] | IC50 at 48 h [11] [µM] | IC50 [12] [µM]
1 | O=C(Nc1nnc(-c2ccccn2)[nH]1)C1CC1c1ccccc1 (centres undefined) | 15.8 | 20 | 15.8 | > 50.1 | 12.6 | 7.94 | 7.94 | 20 | > 12.6 | 20 | > 100 | > 100
2 | COc1cc(Cl)c(C)cc1NC(=O)c1ccc([N+](=O)[O-])s1 | 0.631 | 0.631 | 0.501 | 2.51 | 7.94 | 6.31 | 5.01 | > 50.1 | 0.501 | 10 | 31.6 | 15.8
3 | CC(C)(C)C(=O)NCCc1csc(-c2ccc(F)cc2)n1 | 3.55 | 3.16 | 2.51 | > 50.1 | > 50.1 | > 50.1 | > 50.1 | > 50.1 | 0.631 | 0.794 | > 100 | 79.4
4 | O=C(NCCc1csc(-c2cccc(F)c2)n1)c1ccco1 | 1.58 | 1.58 | 1.26 | 10 | > 50.1 | > 50.1 | > 50.1 | > 50.1 | 0.501 | 0.631 | > 100 | > 100
5 | CNC(=O)C1Cc2ccccc2N1C(=O)Cc1ccccc1 (centres undefined) | > 50.1 | > 50.1 | > 50.1 | > 50.1 | > 50.1 | > 50.1 | > 50.1 | > 50.1 | 0.631 | 1 | > 100 | > 100
6 | C=CCN(Cc1cccs1)C(=O)CSc1nnc(-c2ccc3c(c2)OCO3)o1 | 6.31 | 0.631 | 0.501 | > 50.1 | 6.31 | 3.16 | 1.26 | > 50.1 | 20 | 39.8 | > 100 | 7.94
7 | COc1ncc(-c2ccc3nccc(-c4ccncc4)c3c2)cc1NS(=O)(=O)C1CC1 | 0.316 | 2.51 | 2 | 0.794 | 1.26 | 1.26 | 0.316 | 1 | 0.2 | 0.398 | > 100 | 7.94
8 | CC(C)c1nn(-c2nc(N)nc(-c3ccccn3)n2)c(N)c1C1CCCCC1 | 2 | 1.26 | 1.26 | 3.16 | 7.94 | 1 | 0.794 | 5.01 | 7.94 | 7.94 | 20 | 3.16
9 | CCOc1ccc(CN(C)Cc2nc(Nc3ccc(C)cc3)[nH]c(=N)n2)cc1 | 6.31 | 5.01 | 5.01 | 3.16 | 31.6 | 3.98 | 3.16 | 39.8 | 2.51 | 2 | 31.6 | 15.8
10 | O=C(CC1(O)C(=O)N(Cc2ccccc2)c2ccc(Br)cc21)c1cccnc1 (centres undefined) | 5.01 | 25.1 | 20 | 3.16 | > 50.1 | > 50.1 | 31.6 | 39.8 | 0.631 | 0.794 | 63.1 | 3.98
11 | Oc1c(-c2nnc(CCc3ccccc3)[nH]2)ncc2cccnc12 | 0.2 | 0.2 | 0.2 | 15.8 | 0.316 | 3.98 | 3.16 | 20 | 0.794 | 1.58 | 39.8 | > 100
12 | Cc1nn(-c2ccccc2)nc1CNC(=O)CN(Cc1ccccn1)Cc1ccccn1 | 3.98 | 10 | 3.16 | > 63.1 | 7.94 | 5.01 | 5.01 | > 63.1 | 31.6 | 10 | > 126 | 25.1
13 | Oc1cc(CSc2ccc(Cl)cc2)nc(-c2ccccn2)n1 | 1 | 1.58 | 0.794 | 3.16 | 1.58 | 5.01 | 2 | 3.98 | 0.794 | 1 | > 100 | 63.1
14 | COc1ccc2ncc(=O)n(CCN3CC[C@H](NCc4ncc(Cl)c5[nH]ncc45)[C@H](O)C3)c2n1 | 3.98 | 3.16 | 1.58 | > 50.1 | > 50.1 | > 50.1 | > 50.1 | > 50.1 | 0.316 | 0.501 | > 100 | > 100
15 | O=C(Nc1ccc(C(F)(F)F)cc1)Nc1cccc([N+](=O)[O-])c1 | 1 | 1.26 | 0.794 | 5.01 | 7.94 | 2.51 | 2 | 6.31 | 2 | 2 | 10 | 6.31
16 | CCN(Cc1nc2ccc(C(=O)N3CCN(c4ncccn4)CC3)cc2[nH]1)C1CCCc2cccnc21 (centres undefined) | 1.26 | 12.6 | 2 | 15.8 | 5.01 | 3.98 | 1.58 | 20 | 2.51 | 5.01 | > 100 | 7.94
17 | COc1cc(Nc2nccc(Nc3onc(C)c3C)n2)cc(S(=O)(=O)C2CCOCC2)c1 | 6.31 | 25.1 | 12.6 | 10 | 39.8 | > 50.1 | 5.01 | 39.8 | 0.501 | 0.501 | 31.6 | 7.94
